Experimental data as given in PMC6199309, “A therapeutic approach to pantothenate kinase associated neurodegeneration” (Nature Communications, 2018).

Tests used:
[1] = target: T1, PIP5K1C (Homo sapiens, UniProt O60331); assay: KINOMEscan; format: binding; details: read-out: %Ctrl @ 10000nM
T1 construct: purchased DiscoverX KINOMEscan

[2] = target: T2, PIK3CA(H1047Y) (Homo sapiens, UniProt P42336, H1047Y); assay: KINOMEscan; format: binding; details: read-out: %Ctrl @ 10000nM
T2 construct: purchased DiscoverX KINOMEscan

[3] = target: T3, ABL1(T315I)-phosphorylated (Homo sapiens, UniProt P00519, T315I); assay: KINOMEscan; format: binding; details: read-out: %Ctrl @ 10000nM
T3 construct: purchased DiscoverX KINOMEscan

[4] = target: T4, BUB1 (Homo sapiens, UniProt O43683); assay: KINOMEscan; format: binding; details: read-out: %Ctrl @ 10000nM
T4 construct: purchased DiscoverX KINOMEscan

[5] = target: T5, ALK(L1196M) (Homo sapiens, UniProt Q9UM73, L1196M); assay: KINOMEscan; format: binding; details: read-out: %Ctrl @ 10000nM
T5 construct: purchased DiscoverX KINOMEscan

[6] = target: T6, ASK2 (Homo sapiens, UniProt O95382); assay: KINOMEscan; format: binding; details: read-out: %Ctrl @ 10000nM
T6 construct: purchased DiscoverX KINOMEscan

[7] = target: T7, DYRK1B (Homo sapiens, UniProt Q9Y463); assay: KINOMEscan; format: binding; details: read-out: %Ctrl @ 10000nM
T7 construct: purchased DiscoverX KINOMEscan

[8] = target: T8, NEK5 (Homo sapiens, UniProt Q6P3R8); assay: KINOMEscan; format: binding; details: read-out: %Ctrl @ 10000nM
T8 construct: purchased DiscoverX KINOMEscan

[9] = target: T9, SgK110 (Homo sapiens, UniProt P0C264); assay: KINOMEscan; format: binding; details: read-out: %Ctrl @ 10000nM
T9 construct: purchased DiscoverX KINOMEscan

[10] = target: T10, EGFR(G719C) (Homo sapiens, UniProt P00533, G719C); assay: KINOMEscan; format: binding; details: read-out: %Ctrl @ 10000nM
T10 construct: purchased DiscoverX KINOMEscan

[11] = system: C3A cells; assay: Intracellular CoA and metabolite levels in C3A cells; format: cell-based, human; details: 24 h
Method: HEK293T cells (ATCC, #CRL-3216) were maintained in Dulbecco’s modified Eagle’s medium (DMEM, Biowhittaker/Lonza) supplemented with 10% FCS. Human C3A [HepG2/C3A, derivative of HepG2] cells (ATCC #CRL-10741) were purchased from ATCC® and maintained in Eagle’s minimum Essential medium (ATCC) supplemented with 2 mM glutamine, 10% fetal bovine serum (FCS, Altanta Biologicals), 50 U/ml penicillin and […] streptomycin. Both cell lines were confirmed to be mycoplasma-free. […]. […] After 24 h of treatment (total 48 h after transfection) the cells were washed with PBS and harvested and subjected to either total CoA or acetyl-CoA determinations.
Prior to labeling, cells were seeded at a density of 2–3 × 10^6 in 60 mm-dishes in reconstituted DMEM without added pantothenate and allowed to adhere overnight. The labeling was initiated by replacing the medium with 2 ml of labeling medium containing 0.1% dimethylsulfoxide (DMSO; control) or 10 μM of the compound in 0.1% DMSO. Cells were incubated for 24 h, the labeling medium was removed, and cells were washed with phosphate buffered saline and lysed by sonication in 20 mM Tris-HCl, pH 7.5, 2 mM DTT, 5 mM EDTA and 50 mM NaF. The lysates were fractionated by thin-layer chromatography after removal of the cell debris by centrifugation. The samples were spotted on Silica Gel H plates and resolved with 95% ethanol:28% ammonium hydroxide (4/1, v/v). The distribution of radioactivity on the plate was quantified using a Bioscan Imager (Bioscan, Inc.) together with quantification of the total cellular radioactivity determined by a Liquid Scintillation Analyzer (PerkinElmer Tri-Carb 2910 TR). Triplicate culture dishes were labeled for each group plus a dish for each group for determination of cell counts and viability using a Nucleocounter (New Brunswick Scientific) according to the manufacturer’s directions. The experiments were repeated twice in duplicate and the data represented is an overall average ± SEM.
Cultured cells or frozen tissues were resuspended in 2 ml cold water to which 500 μl of 0.25 M KOH was added, derivatized with monobromobimane (mBBr, Life technologies) and quantified by HPLC[23]. For acetyl-CoA determinations, C3A cells were resuspended in 1 ml water, added to 2 ml of methanol and 1 ml chloroform, and incubated on ice for 15 min. Chloroform 1.5 ml, 1.2 ml water and 30 pmol of [^13C2]acetyl-CoA (Sigma) was added, and centrifuged at 2000×g for 10 min. The top layer was loaded on a 2-(2-pyridyl) ethyl solid phase extraction column which was equilibrated with 1 ml 50% methanol/2% acetic acid. The column was washed twice with 1 ml 50% methanol/2% acetic acid and 1 ml water. CoA and thioesters were eluted twice with 1 ml 95% ethanol containing 50 mM ammonium hydroxide. Samples were resuspended in 90% methanol containing 15 mM ammonium hydroxide.
The mBBr derivatized sample was fractionated by reverse-phase HPLC using a Gemini C18 3 μm column (150 × 4.60 mm) from Phenomenex. The chromatography system was a Waters e2695 separation module with a UV/Vis and fluorescence detector and controlled by Empower 3 software. Solvent A was 50 mM potassium phosphate pH 4.6, and solvent B was 100% acetonitrile. Twenty microliters of sample was injected onto the column, and the flow rate was 0.5 ml/min. The HPLC program was the following: starting solvent mixture of 90% A/10% B, 0–2 min isocratic with 10% B, 2–6 min linear gradient from 10% B to 15% B, 6–18 min concave gradient from 15% B to 40% B, 18–23 min isocratic with 40% B, 23–25 min linear gradient from 40 to 10%, and 25–30 min isocratic with 10% B. The UV/vis detector was set at 393 nm, and the fluorescence detector was set with excitation at 393 nm and emission at 470 nm. […]

[12] = target: T11, NIM1 (Homo sapiens, UniProt Q8IY84); assay: KINOMEscan; format: binding; details: read-out: %Ctrl @ 10000nM
T11 construct: purchased DiscoverX KINOMEscan

[13] = target: T12, ACVR2B (Homo sapiens, UniProt Q13705); assay: KINOMEscan; format: binding; details: read-out: %Ctrl @ 10000nM
T12 construct: purchased DiscoverX KINOMEscan

[14] = target: T13, PRKCI (Homo sapiens, UniProt P41743); assay: KINOMEscan; format: binding; details: read-out: %Ctrl @ 10000nM
T13 construct: purchased DiscoverX KINOMEscan

[15] = target: T14, DYRK1A (Homo sapiens, UniProt Q13627); assay: KINOMEscan; format: binding; details: read-out: %Ctrl @ 10000nM
T14 construct: purchased DiscoverX KINOMEscan

[16] = target: T15, EPHB3 (Homo sapiens, UniProt P54753); assay: KINOMEscan; format: binding; details: read-out: %Ctrl @ 10000nM
T15 construct: purchased DiscoverX KINOMEscan

[17] = target: T16, MKNK2 (Homo sapiens, UniProt Q9HBH9); assay: KINOMEscan; format: binding; details: read-out: %Ctrl @ 10000nM
T16 construct: purchased DiscoverX KINOMEscan

[18] = target: T17, YANK1 (Homo sapiens, UniProt Q8WU08); assay: KINOMEscan; format: binding; details: read-out: %Ctrl @ 10000nM
T17 construct: DNA label for qPCR (T7 phage fusion or DNA tag); purchased DiscoverX scanMAX; host or cells: E. coli BL21-derived (T7 phage) or HEK-293

[19] = target: T18, CAMK1B (Homo sapiens, UniProt Q6P2M8); assay: KINOMEscan; format: binding; details: read-out: %Ctrl @ 10000nM
T18 construct: purchased DiscoverX KINOMEscan

T6 sequence (O95382 whole entry): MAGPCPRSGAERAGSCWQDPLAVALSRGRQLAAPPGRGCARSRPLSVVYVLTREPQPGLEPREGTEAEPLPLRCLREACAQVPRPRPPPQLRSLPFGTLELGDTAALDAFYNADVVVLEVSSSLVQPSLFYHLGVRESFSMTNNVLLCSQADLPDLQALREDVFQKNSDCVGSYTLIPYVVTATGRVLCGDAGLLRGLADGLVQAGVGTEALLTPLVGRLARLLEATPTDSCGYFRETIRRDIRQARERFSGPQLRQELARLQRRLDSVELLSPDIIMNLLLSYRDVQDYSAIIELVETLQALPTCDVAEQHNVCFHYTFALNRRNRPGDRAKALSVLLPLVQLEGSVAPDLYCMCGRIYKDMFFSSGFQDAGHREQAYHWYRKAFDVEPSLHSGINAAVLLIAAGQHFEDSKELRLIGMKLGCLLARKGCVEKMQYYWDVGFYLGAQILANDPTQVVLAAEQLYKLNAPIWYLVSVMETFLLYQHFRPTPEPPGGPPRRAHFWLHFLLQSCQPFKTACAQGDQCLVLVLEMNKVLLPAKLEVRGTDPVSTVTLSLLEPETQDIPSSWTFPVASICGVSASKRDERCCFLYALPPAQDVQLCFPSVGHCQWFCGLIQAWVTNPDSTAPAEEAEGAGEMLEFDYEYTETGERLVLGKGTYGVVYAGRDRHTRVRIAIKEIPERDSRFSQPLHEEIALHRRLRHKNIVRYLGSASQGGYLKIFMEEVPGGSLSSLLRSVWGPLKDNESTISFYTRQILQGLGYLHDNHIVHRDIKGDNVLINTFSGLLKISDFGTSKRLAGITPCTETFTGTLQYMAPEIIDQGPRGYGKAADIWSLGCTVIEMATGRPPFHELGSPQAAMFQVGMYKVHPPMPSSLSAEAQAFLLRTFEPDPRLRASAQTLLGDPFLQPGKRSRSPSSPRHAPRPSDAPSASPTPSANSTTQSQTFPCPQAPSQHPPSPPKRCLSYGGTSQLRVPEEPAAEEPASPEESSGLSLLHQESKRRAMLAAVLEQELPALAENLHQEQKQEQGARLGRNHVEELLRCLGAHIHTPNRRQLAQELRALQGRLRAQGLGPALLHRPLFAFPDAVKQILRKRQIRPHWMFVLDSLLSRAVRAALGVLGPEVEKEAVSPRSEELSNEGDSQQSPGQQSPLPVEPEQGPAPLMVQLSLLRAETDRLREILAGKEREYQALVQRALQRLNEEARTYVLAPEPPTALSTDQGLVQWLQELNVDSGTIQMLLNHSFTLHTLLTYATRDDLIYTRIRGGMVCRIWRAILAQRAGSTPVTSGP
T1 sequence (O60331 whole entry): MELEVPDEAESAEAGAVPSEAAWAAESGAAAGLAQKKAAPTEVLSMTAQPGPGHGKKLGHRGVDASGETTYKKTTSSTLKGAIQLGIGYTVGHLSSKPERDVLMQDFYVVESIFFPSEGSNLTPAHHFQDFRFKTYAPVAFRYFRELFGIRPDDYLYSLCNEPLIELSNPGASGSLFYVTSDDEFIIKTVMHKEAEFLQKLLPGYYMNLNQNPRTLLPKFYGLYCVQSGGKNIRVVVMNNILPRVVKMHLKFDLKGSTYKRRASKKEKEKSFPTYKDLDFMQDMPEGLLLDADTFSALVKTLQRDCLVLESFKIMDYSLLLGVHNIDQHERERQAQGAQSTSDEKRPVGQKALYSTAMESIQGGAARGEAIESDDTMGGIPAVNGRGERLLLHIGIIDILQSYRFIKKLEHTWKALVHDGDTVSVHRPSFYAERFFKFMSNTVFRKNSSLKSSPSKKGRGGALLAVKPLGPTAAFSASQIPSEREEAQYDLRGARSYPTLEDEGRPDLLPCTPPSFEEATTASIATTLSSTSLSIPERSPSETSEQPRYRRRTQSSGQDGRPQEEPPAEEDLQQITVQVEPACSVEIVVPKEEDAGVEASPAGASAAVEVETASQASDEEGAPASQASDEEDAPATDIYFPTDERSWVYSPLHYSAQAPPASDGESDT
T9 sequence (P0C264 whole entry): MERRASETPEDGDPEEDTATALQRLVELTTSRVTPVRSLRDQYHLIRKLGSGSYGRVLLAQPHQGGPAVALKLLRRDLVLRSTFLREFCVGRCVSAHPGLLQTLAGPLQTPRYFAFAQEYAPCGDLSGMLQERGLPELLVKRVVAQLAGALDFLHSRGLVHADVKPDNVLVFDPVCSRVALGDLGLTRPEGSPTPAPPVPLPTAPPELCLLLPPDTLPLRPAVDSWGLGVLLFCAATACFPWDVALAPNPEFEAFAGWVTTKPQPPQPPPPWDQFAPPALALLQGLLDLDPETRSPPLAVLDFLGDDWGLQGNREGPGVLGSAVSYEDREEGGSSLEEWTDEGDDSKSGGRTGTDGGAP
T7 sequence (Q9Y463 whole entry): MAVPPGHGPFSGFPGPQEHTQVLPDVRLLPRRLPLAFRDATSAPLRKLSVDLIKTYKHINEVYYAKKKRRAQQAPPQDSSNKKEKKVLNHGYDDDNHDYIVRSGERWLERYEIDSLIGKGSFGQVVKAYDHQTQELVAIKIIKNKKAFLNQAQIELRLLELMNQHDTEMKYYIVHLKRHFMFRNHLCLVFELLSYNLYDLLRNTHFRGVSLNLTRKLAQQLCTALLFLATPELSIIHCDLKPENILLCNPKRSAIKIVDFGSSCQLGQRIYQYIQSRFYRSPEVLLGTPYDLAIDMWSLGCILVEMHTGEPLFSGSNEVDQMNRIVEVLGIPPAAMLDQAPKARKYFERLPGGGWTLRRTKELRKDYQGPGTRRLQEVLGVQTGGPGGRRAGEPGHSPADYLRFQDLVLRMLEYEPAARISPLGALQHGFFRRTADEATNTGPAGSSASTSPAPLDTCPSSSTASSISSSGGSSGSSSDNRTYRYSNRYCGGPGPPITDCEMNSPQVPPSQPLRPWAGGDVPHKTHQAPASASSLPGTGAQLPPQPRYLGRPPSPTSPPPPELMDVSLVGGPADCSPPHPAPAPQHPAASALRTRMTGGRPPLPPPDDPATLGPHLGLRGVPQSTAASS
T15 sequence (P54753 34-998): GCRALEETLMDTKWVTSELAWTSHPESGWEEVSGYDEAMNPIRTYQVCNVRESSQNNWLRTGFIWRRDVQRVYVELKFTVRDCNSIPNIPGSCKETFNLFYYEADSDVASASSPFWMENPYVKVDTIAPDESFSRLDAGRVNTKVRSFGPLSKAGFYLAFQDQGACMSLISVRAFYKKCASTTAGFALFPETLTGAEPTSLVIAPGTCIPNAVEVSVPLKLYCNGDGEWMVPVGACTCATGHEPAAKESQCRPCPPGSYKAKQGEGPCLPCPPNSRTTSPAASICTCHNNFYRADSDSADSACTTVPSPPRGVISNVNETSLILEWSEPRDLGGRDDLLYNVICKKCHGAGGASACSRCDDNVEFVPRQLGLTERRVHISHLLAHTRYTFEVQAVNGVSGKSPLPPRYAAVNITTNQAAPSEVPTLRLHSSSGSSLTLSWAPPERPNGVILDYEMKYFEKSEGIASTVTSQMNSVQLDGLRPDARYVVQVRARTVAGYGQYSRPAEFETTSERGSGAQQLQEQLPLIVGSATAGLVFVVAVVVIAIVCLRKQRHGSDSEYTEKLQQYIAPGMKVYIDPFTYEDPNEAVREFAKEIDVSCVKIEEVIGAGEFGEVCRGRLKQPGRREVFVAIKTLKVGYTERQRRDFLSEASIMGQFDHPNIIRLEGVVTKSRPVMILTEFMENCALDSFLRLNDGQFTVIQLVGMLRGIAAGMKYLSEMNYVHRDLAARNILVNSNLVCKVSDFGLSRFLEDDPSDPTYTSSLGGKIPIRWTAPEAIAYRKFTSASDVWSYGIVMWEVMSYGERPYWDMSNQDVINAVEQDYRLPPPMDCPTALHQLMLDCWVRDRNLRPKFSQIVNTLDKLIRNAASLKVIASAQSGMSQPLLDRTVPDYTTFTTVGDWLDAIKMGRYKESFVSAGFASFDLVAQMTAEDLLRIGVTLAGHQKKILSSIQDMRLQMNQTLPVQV
T13 sequence (P41743 whole entry): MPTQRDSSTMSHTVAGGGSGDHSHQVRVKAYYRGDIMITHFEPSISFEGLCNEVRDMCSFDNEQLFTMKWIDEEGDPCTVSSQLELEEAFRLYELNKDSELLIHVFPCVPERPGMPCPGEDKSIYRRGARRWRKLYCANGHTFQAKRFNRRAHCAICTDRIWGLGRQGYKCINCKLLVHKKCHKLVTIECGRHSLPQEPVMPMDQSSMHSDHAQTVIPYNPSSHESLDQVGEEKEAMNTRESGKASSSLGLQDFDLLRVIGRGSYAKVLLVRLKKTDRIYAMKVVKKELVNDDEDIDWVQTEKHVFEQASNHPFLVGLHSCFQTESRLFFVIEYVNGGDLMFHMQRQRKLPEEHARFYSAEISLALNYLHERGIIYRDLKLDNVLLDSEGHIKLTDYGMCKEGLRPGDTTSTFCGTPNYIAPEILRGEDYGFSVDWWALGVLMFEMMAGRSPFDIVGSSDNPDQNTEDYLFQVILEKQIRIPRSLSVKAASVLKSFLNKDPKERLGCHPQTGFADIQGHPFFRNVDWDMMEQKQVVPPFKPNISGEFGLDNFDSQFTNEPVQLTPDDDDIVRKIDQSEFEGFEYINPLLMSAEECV
T17 sequence (Q8WU08 whole entry, the tested form may be a part): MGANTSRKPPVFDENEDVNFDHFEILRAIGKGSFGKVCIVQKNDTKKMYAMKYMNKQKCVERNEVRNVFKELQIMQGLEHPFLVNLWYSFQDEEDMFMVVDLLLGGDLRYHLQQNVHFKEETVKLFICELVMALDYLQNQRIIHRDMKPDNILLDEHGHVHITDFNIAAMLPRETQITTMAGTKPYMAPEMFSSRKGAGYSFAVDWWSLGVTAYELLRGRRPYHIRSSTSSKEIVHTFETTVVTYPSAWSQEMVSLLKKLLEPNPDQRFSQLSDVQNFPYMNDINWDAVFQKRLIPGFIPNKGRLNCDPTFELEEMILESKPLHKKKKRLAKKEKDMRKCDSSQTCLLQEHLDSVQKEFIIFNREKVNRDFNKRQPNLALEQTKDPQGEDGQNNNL

SMILES: CC(C)c1ccc(CC(=O)N2CCN(c3ccc(C#N)nn3)CC2)cc1 [PZ-2891, 6-(4-(2-(4-isopropylphenyl)acetyl)piperazin-1-yl)pyridazine-3-carbonitrile]
- remaining binding at 10 µM [1]: 100%
- remaining binding at 10 µM [2]: 46%
- remaining binding at 10 µM [3]: 97%
- remaining binding at 10 µM [4]: 100%
- remaining binding at 10 µM [5]: 73%
- remaining binding at 10 µM [6]: 83%
- remaining binding at 10 µM [7]: 66%
- remaining binding at 10 µM [8]: 100%
- remaining binding at 10 µM [9]: 94%
- remaining binding at 10 µM [10]: 100%
- intracellular CoA ([3H]pantothenate labeling) ([11]; 10 μM, C3A cells): increased the amount of intracellular CoA
- intracellular pantothenate ([3H]pantothenate labeling) ([11]; 10 μM, C3A cells): lowered intracellular pantothenate
- acetyl-CoA levels in C3A cells ([11]; 10 μM, mass spectrometry): higher acetyl-CoA levels
- total intracellular CoA levels in C3A cells ([11]; increasing concentrations (20 and 50 μM less activating)): CoA progressively increased up to 10 μM
- remaining binding at 10 µM [12]: 83%
- remaining binding at 10 µM [13]: 100%
- remaining binding at 10 µM [14]: 83%
- remaining binding at 10 µM [15]: 71%
- remaining binding at 10 µM [16]: 92%
- remaining binding at 10 µM [17]: 79%
- remaining binding at 10 µM [18]: 74%
- remaining binding at 10 µM [19]: 100%
